This assay has as its system human neutrophilic leukocytes. Description: Inhibition of superoxide radical (O2-) generation in FMLP-stimulated human neutrophilic leukocytes (ferricytochrome C method). The assay is classed as cell-based. From the text: (1) Activity for inhibiting the generation of superoxide radical (O2^−) in human neutrophilic leukocytes
That is, a whole blood obtained from a healthy adult and treated by anticoagulation method was subjected to a dextranhypotonic treatment to obtain leukocyte cells. The leukocyte cells were then subjected to a density gradient ultracentrifugation by Ficoll-Paque to obtain a neutrophilic leukocyte fraction.
O2^− generation was examined by the ferricytochrome C method in accordance with the method of B. N. Cronstein et al. [Journal of Experimental Medicine, vol. […] Each test compound was dissolved in dimethyl sulfoxide (DMSO); the solution was added to neutrophilic leukocytes before the addition of FMLP; then, the neutrophilic leukocytes were pre-incubated at 37° C.

The mark [1] stands for this setting: Homo sapiens, Leukocyte, pH 7.4, Table 15, O2- generation, 3x10^-7 M FMLP, cytochalasin B, 37° C., pH 7.4.
The mark [2] stands for this setting: Homo sapiens, Leukocyte, Table 16, comparative test present compounds vs prior art compounds, NE = not effective.
The mark [3] stands for this setting: Table 15, O2- generation, 3x10^-7 M FMLP, cytochalasin B, 37° C., pH 7.4.

Drawing on patent publication USRE37556E1, “Superoxide radical inhibitor” (Otsuka Pharmaceutical Co., Ltd., priority 1990, dated 2002), this text covers IC50 for 41 compounds.

Counter-ions that a name gives are not always drawn.

Usually IC50 stands for the midpoint of a concentration-inhibition curve. High values mean a need for much substance, low ones inhibition by little substance. Under setting [1], `CCOc1ccc(-c2nc(-c3ccc(O)c(CC)c3)cs2)cc1OCC` [compound 98, 4-(3-Ethyl-4-hydroxyphenyl)-2-(3,4-Diethoxyphenyl)thiazole] showed a half-maximal inhibitory concentration (IC50) of 83 nM. In other words, the double-digit nanomolar range.

For `CCOc1ccc(-c2nc(-c3ccc(O)c(C(=O)O)c3)c(C)s2)cc1OCC` [compound 99, 4-(3-Carboxy-4-hydroxyphenyl)-2-(3,4-diethoxyphenyl)-5-methylthiazole], the half-inhibitory concentration (IC50) under setting [1] amounted to 720 nM. Compared with the last compound, the IC50 is about 8.7-fold higher.

Under setting [1], `CCOc1ccc(-c2nc(-c3cc(C(=O)O)c(O)cc3O)cs2)cc1OCC` [compound 100, 4-(3-Carboxy-4,6-dihydroxyphenyl)-2-(3,4-diethoxyphenyl)thiazole] gave an IC50 of 48 nM.

`CCOc1ccc(-c2nc(-c3cc(C(=O)OC)cc([N+](=O)[O-])c3O)cs2)cc1OCC` [compound 101, 4-(3-Methoxycarbonyl-5-nitro-6-hydroxyphenyl)-2-(3,4-diethoxyphenyl)thiazole] showed a half-maximal inhibitory concentration (IC50) under setting [1] of 10 nM.

The compound `CCOc1ccc(-c2nc(-c3cc(C(=O)OC)cc(N)c3O)cs2)cc1OCC` [compound 102, 4-(3-Methoxycarbonyl-5-amino-6-hydroxyphenyl)-2-(3,4-diethoxyphenyl)thiazole] came in with an IC50 under setting [1] of 69 nM. This IC50 lies about 6.9-fold higher than the previous one.

Under setting [1], `C=CCc1cc(C(=O)O)cc(-c2csc(-c3ccc(OCC)c(OCC)c3)n2)c1O` [compound 103, 4-(3-Carboxy-5-allyl-6-hydroxyphenyl)-2-(3,4-diethoxy-phenyl)thiazole] had an IC50 of 94 nM.

In the case of `CCOc1cc(-c2nc(-c3cc(C(=O)O)ccc3O)cs2)ccc1OC` [compound 104, 4-(3-Carboxy-6-hydroxyphenyl)-2-(3-ethoxy-4-methoxy-phenyl)thiazole], the IC50 reads like this: under setting [2], 34 nM; under setting [1], 34 nM.

Under setting [2], `COc1ccc(-c2nc(-c3ccc(O)c(C(=O)O)c3)cs2)cc1OC` [compound 105, 4-(3-Carboxy-4-hydroxyphenyl)-2-(3,4-dimethoxyphenyl)thiazole, reference compound] yielded an IC50 of 1000 nM.

For the compound `CCOc1ccc(-c2nc(-c3cc(O)cc(C(=O)O)c3)cs2)cc1OCC` [compound 110, 4-(3-Carboxy-5-hydroxyphenyl)-2-(3,4-diethoxyphenyl)thiazole, reference compound], half-maximal inhibition under setting [2] (IC50) was put at 660 nM. This IC50 is about 1.5-fold lower than that of the compound before.

In the case of `CCCCOc1ccc(-c2nc(-c3ccc(O)c(C(=O)O)c3)cs2)cc1OCCCC` [compound 111, 4-(3-Carboxy-4-hydroxyphenyl)-2-(3,4-dibutoxyphenyl)thiazole, reference compound], the IC50 under setting [2] was 8300 nM.

Consider `CCOc1ccc(-c2nc(-c3cc(C(=O)O)ccc3OC)cs2)cc1OCC` [compound 112, 4-(3-Carboxy-6-methoxyphenyl)-2-(3,4-diethoxyphenyl)thiazole, reference compound], for which, under setting [2], the IC50 came to 8700 nM.

Turning to `CCOc1ccc(-c2nc(-c3cc(C(=O)O)cc(N)c3O)cs2)cc1OCC` [compound 113, 4-(2-Hydroxy-3-amino-5-carboxyphenyl)-2-(3,4-diethoxy-phenyl)thiazole hydrochloride], half-maximal inhibition under setting [1] (IC50) was put at 25 nM.

Under setting [1], `CCCc1cc(C(=O)O)cc(-c2csc(-c3ccc(OCC)c(OCC)c3)n2)c1O` [compound 114, 4-(2-Hydroxy-3-propyl-5-carboxyphenyl)-2-(3,4-diethoxy-phenyl)thiazole] displayed an IC50 of 100 nM.

In the case of `CCOc1ccc(-c2nc(-c3cccc(C(=O)O)n3)cs2)cc1OCC` [compound 115, 4-(6-Carboxy-2-pyridyl)-2-(3,4-diethoxyphenyl)-thiazole], the IC50 under setting [1] is 80 nM.

`CCOc1ccc(-c2nc(-c3ccccc3)cs2)cc1OCC` [compound 116, 2-(3,4-Diethoxyphenyl)-4-phenylthiazole] registered an IC50 under setting [1] of 370 nM. This IC50 is about 4.6-fold higher than that of the compound before.

Take `CCOc1ccc(-c2nc(-c3ccc(NCCN4CCCCC4)c(C(=O)OC)c3)cs2)cc1OCC` [compound 117, 2-(3,4-Diethoxyphenyl)-4-{3-methoxycarbonyl-4-[2-(1-piperidinyl)ethylamino]phenyl}thiazole dihydrochloride]: under setting [1], the IC50 turned out to be 460 nM.

In the case of `CCOc1ccc(-c2nc(-c3ccc(O)c(C(=O)OCCN(C)C)c3)cs2)cc1OCC` [compound 118, 2-(3,4-Diethoxyphenyl)-4-[4-hydroxy-3-(2-dimethylaminoethoxycarbonyl)phenyl]thiazole trihydrochloride], the IC50 under setting [1] came out at 560 nM.

Consider `CCOc1ccc(-c2nc(-c3ccc(C(=O)O)[nH]3)cs2)cc1OCC` [compound 119, 2-(3,4-Diethoxyphenyl)-4-(2-carboxy-5-pyrrolyl)-thiazole], for which half-maximal inhibition under setting [1] (IC50) was put at 24 nM.

Under setting [1], `CCCCCCCCCOC(=O)c1cc(-c2csc(-c3ccc(OCC)c(OCC)c3)n2)ccc1O` [compound 120, 2-(3,4-Diethoxyphenyl)-4-(4-hydroxy-3-n-nonyloxy-carbonylphenyl)thiazole] had an IC50 of 490 nM. Compared with the last compound, the IC50 is about 20-fold higher.

As to `CCOc1ccc(-c2nc(-c3ccc(C(=O)OC)o3)cs2)cc1OCC` [compound 121, 2-(3,4-Diethoxyphenyl)-4-(2-methoxycarbonyl-5-furyl)thiazole], the IC50 under setting [1] stood at 38 nM. This IC50 lies about 13-fold lower than the previous one.

In turn, `CCOc1ccc(-c2nc(-c3ccc(C(=O)O)o3)cs2)cc1OCC` [compound 122, 2-(3,4-Diethoxyphenyl)-4-(2-carboxy-5-furyl)-thiazole] came in with an IC50 under setting [1] of 19 nM.

`CCOc1ccc(-c2nc(-c3cccc(C(=O)N(C)C)n3)cs2)cc1OCC` [compound 123, 2-(3,4-Diethoxyphenyl)-4-(2-dimethylaminocarbonyl-6-pyridyl)thiazole] registered an IC50 under setting [1] of 380 nM.

Under setting [3], `CCOc1ccc(-c2nc(-c3ccc(OC)c(C(=O)O)c3)cs2)cc1OCC` [compound 125] gave a 50% inhibitory concentration (IC50) of 190 nM.

As to `CCOc1ccc(-c2nc(-c3cc(CC)c(O)c(C(=O)O)c3)cs2)cc1OCC` [compound 126, 2-(3,4-Diethoxyphenyl)-4-(3-carboxy-4-hydroxy-5-ethylphenyl)thiazole], the IC50 under setting [1] was determined as 14 nM.

`CCOc1ccc(-c2nc(-c3cccc(CO)n3)cs2)cc1OCC` [compound 127] returned an IC50 under setting [3] of 20 nM.

With `CCOc1ccc(-c2nc(-c3cccc(C(=O)N4CCN(C)CC4)n3)cs2)cc1OCC` [compound 128], the IC50 under setting [3] is 580 nM. Against the preceding compound, the IC50 is about 29-fold higher.

Under setting [1], `CCOc1ccc(-c2nc(-c3ccc(C(=O)O)s3)cs2)cc1OCC` [compound 129, 2-(3,4-Diethoxyphenyl)-4-(2-carboxy-5-thienyl)-thiazole] showed a half-maximal inhibitory concentration (IC50) of 82 nM.

`CCOc1ccc(-c2nc(-c3cc(C(=O)O)c4oc(C)cc4c3)cs2)cc1OCC` [compound 130, 2-(3,4-Diethoxyphenyl)-4-(2-methyl-7-carboxy-5-benzofuryl)thiazole] displayed an IC50 under setting [1] of 240 nM. Against the preceding compound, the IC50 is about 2.9-fold higher.

Under setting [1], `CCOC(=O)c1csc(-c2csc(-c3ccc(OCC)c(OCC)c3)n2)n1` [compound 131, 2-(3,4-Diethoxyphenyl)-4-(4-ethoxycarbonyl-2-thiazolyl)thiazole] showed an IC50 of 190 nM.

In the case of `CCOc1ccc(-c2nc(-c3nc(C(=O)O)cs3)cs2)cc1OCC` [compound 132, 2-(3,4-Diethoxyphenyl)-4-(4-carboxy-2-thiazolyl)-thiazole], the IC50 under setting [1] came out at 50 nM.

Under setting [1], `CCOc1ccc(-c2nc(-c3ccc(O)c(CO)c3)cs2)cc1OCC` [compound 133, 2-(3,4-Diethoxyphenyl)-4-(4-hydroxy-3-hydroxymethylphenyl)thiazole] gave an IC50 of 9.2 nM.

For the compound `CCOc1ccc(-c2nc(-c3ccc(OCC)c(C(=O)O)c3)cs2)cc1OCC` [compound 134, 2-(3,4-Diethoxyphenyl)-4-(4-ethoxy-3-carboxyphenyl)thiazole], under setting [1], the midpoint of inhibition, the IC50, lay at 130 nM.

For the compound `CCOc1ccc(-c2nc(-c3cncc(C(=O)O)c3)cs2)cc1OCC` [compound 135, 2-(3,4-Diethoxyphenyl)-4-(3-carboxy-5-pyridyl)-thiazole hydrochloride], the IC50 under setting [1] was found to be 35 nM.

As to `CCCCOC(=O)c1cc(-c2csc(-c3ccc(OCC)c(OCC)c3)n2)ccc1OCCCC` [compound 136, 2-(3,4-Diethoxyphenyl)-4-(3-n-butoxycarbonyl-4-n-butoxyphenyl)thiazole], the IC50 under setting [1] stood at 130 nM.

With `CCCCOc1ccc(-c2csc(-c3ccc(OCC)c(OCC)c3)n2)cc1C(=O)O` [compound 137, 2-(3,4-Diethoxyphenyl)-4-(3-carboxy-4-n-butoxyphenyl)thiazole], under setting [1], the IC50 came to 110 nM.

`CCCOc1ccc(-c2csc(-c3ccc(OCC)c(OCC)c3)n2)cc1C(=O)O` [compound 138, 2-(3,4-Diethoxyphenyl)-4-(3-carboxy-4-n-propoxyphenyl)thiazole] showed an IC50 under setting [1] of 140 nM. The IC50 values of the last two compounds are within 1.5-fold of each other.

With `CCOc1ccc(-c2nc(-c3cc4c(c(C(=O)O)c3)OC(C)(C)C4)cs2)cc1OCC` [compound 139, 2-(3,4-Diethoxyphenyl)-4-(2,2-dimethyl-7-carboxy-2,3-dihydrobenzofuran-5-yl)thiazole], the IC50 under setting [1] was 100 nM.

For the compound `CC=Cc1cc(-c2csc(-c3ccc(OCC)c(OCC)c3)n2)cc(C(=O)O)c1O` [compound 140, 2-(3,4-Diethoxyphenyl)-4-[3-carboxy-4-hydroxy-5-(1-propenyl)phenyl]thiazole], the IC50 under setting [1] came to 4.7 nM.

Under setting [1], `CCOc1ccc(-c2nc(-c3cnc(C)c(C(=O)O)c3)cs2)cc1OCC` [compound 141, 2-(3,4-Diethoxyphenyl)-4-(2-methyl-3-carboxy-5-pyridyl)thiazole] showed an IC50 of 94 nM.

As for `CCOc1ccc(-c2nc(-c3cc(C=O)c(O)c(C(=O)O)c3)cs2)cc1OCC` [compound 142, 2-(3,4-Diethoxyphenyl)-4-(3-carboxy-4-hydroxy-5-formylphenyl)thiazole], the IC50 under setting [1] is 120 nM.

Take `CCOc1ccc(-c2nc(-c3ccc(C(=O)O)cn3)cs2)cc1OCC` [compound 143, 2-(3,4-Diethoxyphenyl)-4-(3-carboxy-6-pyridyl)-thiazole]: the IC50 under setting [1] stood at 270 nM. This IC50 is about 2.2-fold higher than that of the compound before.
